9 compounds from ChEMBL document CHEMBL1138792, “Successful virtual screening for a submicromolar antagonist of the neurokinin-1 receptor based on a ligand-supported homology model” (J Med Chem, 2004) can be followed below.

A word on the IC50: it is the concentration that inhibits the measured activity by half. Read a low IC50 as greater potency.

One assay deals with Substance-P receptor (Homo sapiens, UniProt P25103). Briefly: Inhibition of substance P binding to Tachykinin receptor 1 in Chinese hamster ovary cells. In kind it is cell-based.
Substance-P receptor, sequence (P25103 whole entry): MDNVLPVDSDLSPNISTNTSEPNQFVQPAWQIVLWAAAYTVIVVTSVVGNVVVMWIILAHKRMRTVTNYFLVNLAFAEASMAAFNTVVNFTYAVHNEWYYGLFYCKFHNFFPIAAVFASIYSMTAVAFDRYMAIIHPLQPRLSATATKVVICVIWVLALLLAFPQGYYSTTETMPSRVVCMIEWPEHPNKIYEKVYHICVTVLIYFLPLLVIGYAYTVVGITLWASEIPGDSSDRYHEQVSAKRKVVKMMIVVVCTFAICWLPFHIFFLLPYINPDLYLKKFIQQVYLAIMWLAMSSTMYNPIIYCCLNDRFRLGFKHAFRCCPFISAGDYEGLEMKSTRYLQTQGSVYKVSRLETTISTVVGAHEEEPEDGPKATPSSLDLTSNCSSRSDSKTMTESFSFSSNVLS
Settings: not given
With `CC(=O)NC(Cc1c[nH]c2ccccc12)C(=O)OCc1cc(C)cc(C)c1` (centres undefined), the IC50 was found to be 67 nM. This counts as double-digit nanomolar.
Same read-out and setting: to `N[C@H](Cc1c[nH]c2ccccc12)C(=O)OCc1ccccc1` belongs > 10000 nM; to `COc1ccc(-n2cnnn2)cc1CN[C@H]1CCCN[C@H]1c1ccccc1`, 0.06 nM.
Same read-out and setting: as for `Cc1cc(C)cc(COC(=O)[C@H](N)Cc2c[nH]c3ccccc23)c1`, the figure is 1530 nM; as for `O=C(CSc1nnc(-c2ccncc2)n1-c1ccccc1)Nc1cccc(Cl)c1`, 250 nM; as for `FC(F)(F)c1cc(COCC2(c3ccccc3)CCNCC2)cc(C(F)(F)F)c1`, 1 nM.
Same read-out and setting: to `NC(COCc1ccccc1)C(c1ccccc1)c1ccccc1` (centres undefined) belongs 400 nM.
For the compound `NC(=O)CNC(COCc1cc(C(F)(F)F)cc(C(F)(F)F)c1)C(c1ccccc1)c1ccccc1` (stereo in doubt; 5), the IC50 turned out to be 0.53 nM.

Still in this assay, the particulars now being: ovary.
`NC(=O)CNC(COCc1cc(C(F)(F)F)cc(C(F)(F)F)c1)C(c1ccccc1)c1ccccc1` (stereo in doubt; 16) displayed an IC50 of 0.53 nM.
